In patent publication US8415501B2, “Methods and compositions for making and using polymorphs of cinacalcet” (Amgen, Inc., priority 2006, dated 2013):

Key:
[1] = solid-form stability of cinacalcet HCl polymorphs
Description: The present invention describes an additional third form of the compound. […] The present invention is directed to a novel polymorph Form III.

[2] = tested on: patients with parathyroid carcinoma; settings: cited from earlier work
cytochrome P450 2D6 = cytochrome P450 2D6 (Homo sapiens, UniProt P10635); settings: cited from earlier work
Chain of cytochrome P450 2D6 (P10635 whole entry): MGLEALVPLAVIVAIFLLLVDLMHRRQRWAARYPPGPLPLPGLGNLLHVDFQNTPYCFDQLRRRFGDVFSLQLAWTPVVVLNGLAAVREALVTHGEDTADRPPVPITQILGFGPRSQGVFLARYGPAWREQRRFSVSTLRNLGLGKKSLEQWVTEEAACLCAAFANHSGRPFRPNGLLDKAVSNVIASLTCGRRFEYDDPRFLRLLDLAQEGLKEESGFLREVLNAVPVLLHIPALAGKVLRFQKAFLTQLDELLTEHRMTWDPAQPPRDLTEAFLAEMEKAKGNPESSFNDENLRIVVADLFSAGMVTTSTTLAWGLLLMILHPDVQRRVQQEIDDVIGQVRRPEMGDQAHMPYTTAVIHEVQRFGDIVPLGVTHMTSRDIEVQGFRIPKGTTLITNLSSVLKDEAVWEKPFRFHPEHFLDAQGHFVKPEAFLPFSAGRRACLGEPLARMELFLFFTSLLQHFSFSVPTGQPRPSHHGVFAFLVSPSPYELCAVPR

## C[C@@H](NCCCc1cccc(C(F)(F)F)c1)c1cccc2ccccc12.Cl [Form II]
[1]; room temperature
  stability of the crystalline form: unstable at room temperature

## C[C@@H](NCCCc1cccc(C(F)(F)F)c1)c1cccc2ccccc12.Cl [Form III, N-[1-(R)-(−)-(1-naphthyl)ethyl]-3-[3-(trifluoromethyl)phenyl]-1-aminopropane hydrochloride]
[1]; solvent systems and crystallization methods, XRPD analysis
  thermodynamic stability of the crystalline form: metastable form

## C[C@@H](NCCCc1cccc(C(F)(F)F)c1)c1cccc2ccccc12.Cl [Sensipar®, N-[1-(R)-(−)-(1-naphthyl)ethyl]-3-[3-(trifluoromethyl)phenyl]-1-aminopropane hydrochloride]
[2]
  effect on calcium levels: reduce high levels of calcium
Cytochrome P450 2D6
  metabolizing enzyme: metabolized by cytochrome P450 2D6
